System: E3D1 MECs
Assay: Steady-state laminin internalization, flow cytometry
Format: cell-based, mouse
Conditions: steady-state, continuous Rhod-Ln
Description: Endocytic internalization of laminin was confirmed by multiple methods. Laminin was labeled with the pH-sensitive fluorescent label CypHer-5 (CyPher-Ln) to exclusively image internalized laminin in attached, living cells. The fluorophore CypHer-5 is non fluorescent at pH 7.4 and maximally fluorescent at pH 5.5, permitting fluorescence detection of laminin within intracellular acidic vesicles (pH 4.8-6.0). Following overnight incubation of MECs with CypHer-Ln, live cell imaging detected bright fluorescent vesicles moving rapidly within the cytoplasm (FIG. 3A). Intracellular laminin within the cytoplasm was also independently observed via removal of surface bound laminin followed by confocal imaging. MECs were exposed to 10 μg/ml Rhod-Ln for 18 hrs, trypsinized, washed with PBS/EDTA to remove surface-bound laminin, allowed to re-attach, and stained with the membrane marker FITC-concanavalin A (conA). […] This method of cell treatment permitted a quantitative, flow cytometry-based assay of laminin internalization. In this assay, cells incubated with Rhod-Ln were trypsinized, washed (as in FIG. 3B), and the remaining internal Rhod-Ln fluorescence quantified by flow cytometry. Using this assay, laminin internalization was confirmed in diverse cell types including in primary mammary epithelial cultures, mammary epithelial cell lines (E3D1, MEpG), […] fibroblasts (NIH 3T3 cells), primary astrocytes, and human cancer cell lines (breast and glioma).
To explore the dynamics of laminin internalization, steady-state time course experiments (measuring internalization in the continuous presence of labeled laminin) and pulsed time course experiments were performed. In pulsed time course experiments, the cells were exposed to exogenous Rhod-Ln at 4° C. to prevent internalization, excess unbound Rhod-Ln was washed away, and then cells were returned to 37° C. to allow synchronized internalization and trafficking to proceed. […] Following pulsed and synchronized laminin exposure, Rhod-Ln was again observed to internalize within 1 hour, but reached a maximum at 8 hours, after which the levels of internal laminin declined (FIG. 4A). After 24 hours, internal Rhod-Ln levels declined to ˜37% of the maxima, indicating degradation (MFI: 315±3.5 to 119±11.5). To determine if laminin was degraded using classical degradation pathways, pulsed time course experiments in the presence of leupeptin (lysosome inhibitor) or […] (proteasome inhibitor) were performed.
Laminin internalization could be mediated by either receptor-dependent or receptor independent mechanisms (e.g. pinocytosis). Steady-state laminin internalization was measured using flow cytometry in the presence of potential inhibitors and compared to internalization of 500S FITC-dextran, a molecule of similar molecular size to laminin known to be endocytosed by receptor-independent mechanisms. The specific inhibitor of dynamin, dynasore (Macia E et al, Dev Cell, 839-850 (2006); incorporated by reference herein), inhibited internalization of laminin by >75% (FIG. 6A). Under hypertonic sucrose, a condition known to inhibit receptor-mediated endocytosis (Heuser J E and Anderson R G, J Cell Biol 108, 389-400 (1989); incorporated by reference herein) laminin internalization was reduced by 65% (FIG. 6A). Addition of heparin, a molecule known to bind the laminin LG4-5 domain (Harrison D et al, J Biol Chem 282, 11573-11581 (2007); incorporated by reference herein), decreased laminin internalization by 69% relative to controls (FIG. 6A). […] Specifically, under steady state, laminin internalization was nearly linear throughout the 24 hour time course, whereas dextran internalization plateaued after 16 hrs.
Flow Cytometry—Cells were plated in 12 well plates at 200,000 cells/well. The following day, media was changed to serum-free media with or without 10 μg/ml rhodamine laminin or 40 μg/ml FITC-dextran (500S-Sigma-Aldrich Corp., St. Louis, Mo., USA). […]

Rhod-Ln: laminin-111 labeled with NHS-rhodamine; dystroglycan binding reagent
time at which internalized laminin was measurable: ≤ 1 h
time to plateau of laminin internalization: > 30 h

Reference: patent US20170307610A1, “COMPOUNDS THAT BIND DYSTROGLYCAN AND USES THEREOF” (OREGON HEALTH & SCIENCE UNIVERSITY, priority 2014, published 2017)
